Source: patent US11458138B2 (Novartis AG, priority 2017, dated 2022)

Assays:
[1] = tested on: YAP nuclear translocation in HaCaT cells; assay: YAP Translocation Assay (HaCaT Cells); type: cell-based, human; conditions: Homo sapiens, 24 hours
Outline: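 HaCaT cells (20,000/well) in DMEM + 10% FBS were plated overnight at 37° C, then exposed to compound for 24 h at 37° C. Cells were fixed with PFA, permeabilized with 0.1% Triton/1.5% BSA and imaged by high-content imaging.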

LATS1 = LATS1 (Homo sapiens (Human), UniProt O95835); assay: LATS1 biochemical assay (Table 1A, Compound Examples 1-290; method in the earlier part)
Sequence of LATS1 (O95835 whole entry, looked up): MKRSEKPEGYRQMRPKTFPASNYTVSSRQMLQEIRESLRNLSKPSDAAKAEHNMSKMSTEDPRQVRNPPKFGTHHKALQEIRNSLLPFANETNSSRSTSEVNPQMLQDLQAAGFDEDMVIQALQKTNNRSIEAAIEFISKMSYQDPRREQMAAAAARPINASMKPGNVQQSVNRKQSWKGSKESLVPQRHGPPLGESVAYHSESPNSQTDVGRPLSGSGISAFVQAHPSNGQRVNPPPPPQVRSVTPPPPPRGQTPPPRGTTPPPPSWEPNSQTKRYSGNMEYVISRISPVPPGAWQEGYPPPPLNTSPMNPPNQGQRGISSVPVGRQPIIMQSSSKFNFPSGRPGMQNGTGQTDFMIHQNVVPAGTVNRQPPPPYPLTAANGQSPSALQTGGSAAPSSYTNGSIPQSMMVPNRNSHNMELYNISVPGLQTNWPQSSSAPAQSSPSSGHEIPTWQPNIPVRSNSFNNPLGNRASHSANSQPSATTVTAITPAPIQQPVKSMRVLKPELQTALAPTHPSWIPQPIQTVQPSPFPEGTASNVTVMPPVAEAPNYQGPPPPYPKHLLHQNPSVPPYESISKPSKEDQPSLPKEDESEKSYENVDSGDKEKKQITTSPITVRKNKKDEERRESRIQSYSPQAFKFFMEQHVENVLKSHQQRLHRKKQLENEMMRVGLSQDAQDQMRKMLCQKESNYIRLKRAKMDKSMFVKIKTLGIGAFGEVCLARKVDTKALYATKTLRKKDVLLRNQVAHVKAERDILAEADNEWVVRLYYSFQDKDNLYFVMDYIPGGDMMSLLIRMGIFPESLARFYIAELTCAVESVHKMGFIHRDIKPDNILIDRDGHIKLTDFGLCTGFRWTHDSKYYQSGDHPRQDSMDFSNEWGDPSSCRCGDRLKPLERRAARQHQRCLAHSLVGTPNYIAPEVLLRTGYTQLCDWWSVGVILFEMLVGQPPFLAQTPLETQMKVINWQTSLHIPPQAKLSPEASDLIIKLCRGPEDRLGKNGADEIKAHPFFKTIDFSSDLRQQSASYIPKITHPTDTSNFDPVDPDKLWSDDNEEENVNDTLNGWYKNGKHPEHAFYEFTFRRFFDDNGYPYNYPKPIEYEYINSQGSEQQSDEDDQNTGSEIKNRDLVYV
Sequence of LATS1 (Q7L9L4 whole entry partner, looked up): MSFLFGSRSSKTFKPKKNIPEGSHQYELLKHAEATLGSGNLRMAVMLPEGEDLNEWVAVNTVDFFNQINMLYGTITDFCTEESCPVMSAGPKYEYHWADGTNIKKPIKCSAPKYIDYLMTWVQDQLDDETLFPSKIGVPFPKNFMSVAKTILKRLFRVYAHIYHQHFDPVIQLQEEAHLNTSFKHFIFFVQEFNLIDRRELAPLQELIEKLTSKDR

[2] = tested on: Phospho-YAP (SER127) in HaCaT cells; assay: pYAP HTRF Assay (HaCaT Cells); type: cell-based, human; conditions: Homo sapiens, 2 hours
Protocol: The pYAP HTRF assay was performed using the Phospho-YAP (SER127) 10000 test kit (CisBio, catalogue number 64YAPPEH) according to manufacturer's instructions. Briefly, HaCaT cells were suspended at 1.1×10^6 cells/mL in DMEM (no phenol red)+10% FBS with penicillin-streptomycin-glutamine. 5 μL of cells were dispensed into 1536 well white solid bottom, tissue culture treated plates (5500 cells/well), and incubated for 48 hours at 37° C. 50 nL test compound was transferred into the assay plates containing HaCaT cells using Pintool (GNF) and incubated for 2 hours. […] The plates were incubated overnight (20 hrs) at room temperature covered with metal lids. Plates were read on Pherastar (BMG Labtech) for HTRF (665 nm/620 nm).

Structure (SMILES) | IC50 (LATS1) | EC50 [1] | IC50 [2]
CCC(CC)Nc1nc(-c2ccncc2)nc2cnccc12 [Example 73, N-(pentan-3-yl)-2-(pyridin-4-yl)pyrido[3,4-d]pyrimidin-4-amine] | 6 nM | 8.26 µM | 9.07 µM
CC(C)(CN1CCOCC1)Nc1nc(-c2ccncc2)nc2cnccc12 [Example 74] | 6 nM | 12.7 µM | 3.4 µM
CC(C)(COC(C)(C)C)Nc1nc(-c2ccncc2)nc2cnccc12 [Example 75, N-[1-(tert-butoxy)-2-methylpropan-2-yl]-2-(pyridin-4-yl)pyrido[3,4-d]pyrimidin-4-amine] | 8 nM | 6.91 µM | 3.8 µM
OCC(CC(F)(F)F)Nc1nc(-c2ccncc2)nc2cnccc12 (stereo not drawn) [Example 76, 4,4,4-trifluoro-2-{[2-(pyridin-4-yl)pyrido[3,4-d]pyrimidin-4-yl]amino}butan-1-ol] | 9 nM | 9.41 µM | 6.42 µM
CCCCCNc1nc(-c2ccncc2)nc2cnccc12 [Example 77, N-pentyl-2-(pyridin-4-yl)pyrido[3,4-d]pyrimidin-4-amine] | 9 nM | 13.4 µM | > 100 µM
CCC(CO)Nc1nc(-c2ccncc2)nc2cnccc12 (stereo not drawn) [Example 78, 2-{[2-(pyridin-4-yl)pyrido[3,4-d]pyrimidin-4-yl]amino}butan-1-ol] | 11 nM | 14.3 µM | 12.1 µM
CC(C)(Cc1ccc(F)cc1)Nc1nc(-c2ccncc2)nc2cnccc12 [Example 80, N-[1-(4-fluorophenyl)-2-methylpropan-2-yl]-2-(pyridin-4-yl)pyrido[3,4-d]pyrimidin-4-amine] | 11 nM | 12.9 µM | 21.6 µM
CC(C)(Nc1nc(-c2ccncc2)nc2cnccc12)c1ccccc1 [Example 81, N-(2-phenylpropan-2-yl)-2-(pyridin-4-yl)pyrido[3,4-d]pyrimidin-4-amine] | 11 nM | 17 µM | 42.8 µM
Fc1ccccc1Nc1nc(-c2ccncc2)nc2cnccc12 [Example 82, N-(2-fluorophenyl)-2-(pyridin-4-yl)pyrido[3,4-d]pyrimidin-4-amine] | 13 nM | > 20 µM | > 100 µM
CC(C)(Nc1nc(-c2ccncc2)nc2cnccc12)c1ccc(F)cc1 [Example 83, N-[2-(4-fluorophenyl)propan-2-yl]-2-(pyridin-4-yl)pyrido[3,4-d]pyrimidin-4-amine] | 17 nM | 28.2 µM | 42.1 µM
CNc1nc(-c2ccncc2)nc2cnccc12 [Example 86, N-methyl-2-(pyridin-4-yl)pyrido[3,4-d]pyrimidin-4-amine] | 26 nM | > 20 µM | 56 µM
OC1(CNc2nc(-c3ccncc3)nc3cnccc23)CCCC1 [Example 87, 1-({[2-(pyridin-4-yl)pyrido[3,4-d]pyrimidin-4-yl]amino}methyl)cyclopentan-1-ol] | 30 nM | > 20 µM | 51.6 µM
CN(C)c1nc(-c2ccncc2)nc2cnccc12 [Example 88, N,N-dimethyl-2-(pyridin-4-yl)pyrido[3,4-d]pyrimidin-4-amine] | 37 nM | 29.3 µM | 69.8 µM
Cc1ccccc1Nc1nc(-c2ccncc2)nc2cnccc12 [Example 89, N-(2-methylphenyl)-2-(pyridin-4-yl)pyrido[3,4-d]pyrimidin-4-amine] | 44 nM | > 100 µM | > 100 µM
COc1ccc(Nc2nc(-c3ccncc3)nc3cnccc23)cc1 [Example 91, N-(4-methoxyphenyl)-2-(pyridin-4-yl)pyrido[3,4-d]pyrimidin-4-amine] | 148 nM | > 20 µM | > 10 µM
Fc1cccc(Nc2nc(-c3ccncc3)nc3cnccc23)c1 [Example 95, N-(3-fluorophenyl)-2-(pyridin-4-yl)pyrido[3,4-d]pyrimidin-4-amine] | > 1440 nM | > 20 µM | > 10 µM
CC(C)(CNC(=O)OC(C)(C)C)Nc1nc(-c2ccncc2)nc2cnccc12 [Example 100, Tert-butyl N-(2-methyl-2-{[2-(pyridin-4-yl)pyrido[3,4-d]pyrimidin-4-yl]amino}propyl)carbamate] | 4 nM | 4.83 µM | 11.6 µM
CC(C)CNc1nc(-c2ccncc2)nc2cnccc12 [Example 103, N-(2-methylpropyl)-2-(pyridin-4-yl)pyrido[3,4-d]pyrimidin-4-amine] | 2 nM | 2.27 µM | 2.64 µM
CC(C)(CC#N)Nc1nc(-c2ccncc2)nc2cnccc12 [Example 104, 3-methyl-3-{[2-(pyridin-4-yl)pyrido[3,4-d]pyrimidin-4-yl]amino}butanenitrile] | 5 nM | 5.19 µM | 2.6 µM
NCCCCCCNc1nc(-c2ccncc2)nc2cnccc12 [Example 105, N-(6-aminohexyl)-2-(pyridin-4-yl)pyrido[3,4-d]pyrimidin-4-amine] | 1 nM | > 20 µM | 19.9 µM
NCCCCNc1nc(-c2ccncc2)nc2cnccc12 [Example 106, N-(4-aminobutyl)-2-(pyridin-4-yl)pyrido[3,4-d]pyrimidin-4-amine] | 3 nM | > 20 µM | 14.2 µM
CC(C)(C#N)Nc1nc(-c2ccncc2)nc2cnccc12 [Example 107, 2-methyl-2-{[2-(pyridin-4-yl)pyrido[3,4-d]pyrimidin-4-yl]amino}propanenitrile] | 8 nM | 20 µM | 31.2 µM
C[C@@H](N(C)c1nc(-c2ccncc2F)nc2cnccc12)C(F)(F)F [Example 137, 2-(3-fluoropyridin-4-yl)-N-methyl-N-[(2R)-1,1,1-trifluoropropan-2-yl]pyrido[3,4-d]pyrimidin-4-amine] | 22 nM | > 17.8 µM | 35.5 µM

The next lines start with results.

IC50 (LATS1) | Structure (SMILES) | EC50 [1] | IC50 [2]
27 nM | CC1CCCCN1CC(C)(C)Nc1nc(-c2ccncc2)nc2cnccc12 (stereo not drawn) [Example 108, N-[2-methyl-1-(2-methylpiperidin-1-yl)propan-2-yl]-2-(pyridin-4-yl)pyrido[3,4-d]pyrimidin-4-amine] | > 19.3 µM | 11.8 µM
2 nM | Cc1[nH]c2ncccc2c1-c1nc(NC(C)(C)C)c2ccncc2n1 [Example 114, N-tert-butyl-2-{2-methyl-1H-pyrrolo[2,3-b]pyridin-3-yl}pyrido[3,4-d]pyrimidin-4-amine] | 1.33 µM | 0.565 µM
10 nM | CCN(c1nc(-c2ccncc2F)nc2cnccc12)C(C)C [Example 120, N-ethyl-2-(3-fluoropyridin-4-yl)-N-(propan-2-yl)pyrido[3,4-d]pyrimidin-4-amine] | 2.93 µM | 2.14 µM
18 nM | CCN(c1nc(-c2ccncc2C)nc2cnccc12)C(C)C [Example 123, N-ethyl-2-(3-methylpyridin-4-yl)-N-(propan-2-yl)pyrido[3,4-d]pyrimidin-4-amine] | 9.2 µM | 9.45 µM
22 nM | COCC(C)(C)Nc1nc(-c2ccncc2Cl)nc2cnccc12 [Example 124, 2-(3-chloropyridin-4-yl)-N-(1-methoxy-2-methylpropan-2-yl)pyrido[3,4-d]pyrimidin-4-amine] | 12 µM | 8.01 µM
2 nM | Cc1n[nH]cc1-c1nc(NC(C)(C)C(F)(F)F)c2ccncc2n1 [Example 135, 2-(3-methyl-1H-pyrazol-4-yl)-N-(1,1,1-trifluoro-2-methylpropan-2-yl)pyrido[3,4-d]pyrimidin-4-amine] | 0.85 µM | 0.488 µM
2 nM | CC1(Nc2nc(-c3ccnc(N)c3)nc3cnccc23)CC1 [Example 138, 4-{4-[(1-methylcyclopropyl)amino]pyrido[3,4-d]pyrimidin-2-yl}pyridin-2-amine] | 9.07 µM | 3.37 µM
4 nM | CC1(Nc2nc(-c3ccncc3C#N)nc3cnccc23)CC1 [Example 141, 4-{4-[(1-methylcyclopropyl)amino]pyrido[3,4-d]pyrimidin-2-yl}pyridine-3-carbonitrile] | > 10 µM | 13.6 µM
6 nM | CCCNc1nc(-c2c(C)[nH]c3ncccc23)nc2cnccc12 [Example 142, 2-{2-methyl-1H-pyrrolo[2,3-b]pyridin-3-yl}-N-propylpyrido[3,4-d]pyrimidin-4-amine] | > 28 µM | > 100 µM
7 nM | CC1(Nc2nc(-c3ccc4[nH]ncc4c3)nc3cnccc23)CC1 [Example 143, 2-(1H-indazol-5-yl)-N-(1-methylcyclopropyl)pyrido[3,4-d]pyrimidin-4-amine] | > 20 µM | > 10 µM
12 nM | CC(C)(Nc1nc(-c2c[nH]nc2C(F)(F)F)nc2cnccc12)C(F)(F)F [Example 145, N-(1,1,1-trifluoro-2-methylpropan-2-yl)-2-[3-(trifluoromethyl)-1H-pyrazol-4-yl]pyrido[3,4-d]pyrimidin-4-amine] | 9.31 µM | > 100 µM
69 nM | CC1(Nc2nc(-c3c(F)cncc3F)nc3cnccc23)CC1 [Example 147, 2-(3,5-difluoropyridin-4-yl)-N-(1-methylcyclopropyl)pyrido[3,4-d]pyrimidin-4-amine] | > 20 µM | > 10 µM
